Publication PMC10726441, “Discovery of Tumor-Targeted 6-Methyl Substituted Pemetrexed and Related Antifolates with Selective Loss of RFC Transport” (ACS Medicinal Chemistry Letters, 2023)

Legend:
Assay type in all cases: cell-based, Chinese hamster
RT16 (FRα) CHO cells = test: Cell proliferation assay, RT16 CHO cells expressing human FRα; conditions: for IC50: Cricetulus griseus, RT16, 96 h, 0-1000 nM, mean (standard error), 3-5 experiments; for RFC/FRα Selectivity ratios: ratio of IC50 PC43-10 (RFC) to IC50 RT16 (FRα)
Source text: (§1) To assess the impact of 6-methyl substitutions on the bicyclic scaffolds of the pyrrolo[2,3-d]pyrimidine antifolates 1–4 on RFC transport vis-à-vis PCFT, FRα, and FRβ, we used a unique biological readout for transport activity. This involved proliferation assays with isogenic Chinese hamster ovary (CHO) sublines derived from RFC-, FR-, and PCFT-null MTXRIIOua^R2–4 CHO cells[39],[40] engineered to express the human FRα (RT16),[25] FRβ (D4),[25] RFC (PC43–10),[41] or PCFT (R2/PCFT4).[26],[42] As these CHO cell lines are genetically identical except for their folate transporters, differences in inhibition of cell proliferation by specific cytotoxic antifolates directly reflect transporter specificities.[19],[23]−[31],[42] […]
(§2) Reagents for biological studies. Leucovorin [(6R,S) 5-formyl tetrahydrofolate] and methotrexate (MTX) was provided by the Drug Development Branch, National Cancer Institute, Bethesda, MD. Other chemicals were obtained from commercial sources in the highest available purities. Pemetrexed (PMX; 1) [N-{4-[2- (2-amino-3,4-dihydro-4-oxo-7H-pyrrolo[2,3-d]pyrimidin-5-yl)ethyl]benzoyl-L-glutamic acid] (Alimta) was purchased from LC Laboratories (Woburn, MA). The syntheses of compounds 2 and 3 were previously described.7, 8 Additional chemicals were purchased from commercial sources in the highest available purities.
(§3) Cell Culture. The reduced folate carrier (RFC), proton-coupled folate transporter (SLC46A1; PCFT) and folate receptor (FR) α- and β-null Chinese hamster ovary (CHO) cell line MTXRIIOuaR2-49 was a gift from Dr. Wayne Flintoff (University of Western Ontario, London, ON). Four sublines were derived from the R2 subline by transfection with either RFC, PCFT, FRα, or FRβ, giving rise to PC43-10 (expresses human RFC), 10 R2/PCFT4 (expresses human PCFT),11 RT16 (expresses human FRα), 12 and D4 (expresses FRβ) cells. 12 Isogenic CHO sublines were routinely cultured in α-minimal essential medium (α-MEM) supplemented with 100 units/mL penicillin/100 μg/mL streptomycin, 2 mM L-glutamine and 10% bovine calf serum (Sigma-Aldrich). Transfected sublines of R2 cells were cultured in the presence of 1.5 mg/ml G418. […]
(§4) mM L-glutamine. Cell lines were tested for Mycoplasma by PCR using a Mycloplasma testing kit (Venor™ GeM Mycoplasma Detection Kit, Sigma). Frozen stocks were generated from authenticated Mycoplasma-free cultures.
(§5) For cell proliferation assays, CHO, KB, NCI-IGROV1 and IOSE 7576 cells were plated in 96-well dishes at densities ranging from 2500-5000 cells/well in 200 μL media and treated with a range of inhibitors spanning 0-1000 nM. Experiments with RT16, D4, IGROV1, IOSE 7576 and KB cells used folate-free RPMI 1640 (FF RPMI) media with 10% dialyzed fetal bovine serum and 100 units/mL penicillin/100 μg/mL streptomycin, supplemented with 2 nM leucovorin and 2 mM L-glutamine. FR-mediated drug uptake was assessed in parallel incubations including 200 nM folic acid. For R2/PCFT4, PC43-10 and R2 CHO cells, the medium was FF-RPMI supplemented with 10% dialyzed fetal bovine serum, 100 units/mL penicillin/100 μg/mL streptomycin, 25 nM leucovorin and 2 mM L-glutamine.
(§6) Cells were treated over a 96 h period at 37° C with 5% CO2 and relative cell numbers quantified using the CellTiter-blue cell viability assay (Promega, Madison, WI) and a fluorescence plate reader. Raw data were exported to Excel for analysis and the results were plotted using Graphpad Prism 6.0. Determinations of IC50s were made […]
(§7) assays have been previously described.7, 8, 11, 12, 15-20
(§8) Using KB cells, additional proliferation assays were performed with metabolite protection in folate- and glycine-free RPMI1640 with 10% dialyzed fetal bovine serum, 2 mM L-glutamine and antibiotics with 2 nM leucovorin to identify the targeted pathway and enzyme(s). 7, 8, 11, 12, 15-20 Inhibitory effects of the novel analogs on de novo thymidylate biosynthesis and de novo purine nucleotide biosynthesis were tested by incubating drugs with thymidine (10 μM) and adenosine (60 μM), respectively. […]

PC43-10 (RFC) CHO cells = test: Cell proliferation assay, PC43-10 CHO cells expressing human RFC; conditions: Cricetulus griseus, 96 h, 0-1000 nM, mean (standard error), 3-5 experiments
Source text: as §1, §2, §3, §4, §5, §6, §7, §8

[1] = tested on: R2/PCFT4 (PCFT) CHO cells; test: Cell proliferation assay, R2/PCFT4 CHO cells expressing human PCFT; conditions: for IC50: Cricetulus griseus, R2/PCFT4, 96 h, 0-1000 nM, mean (standard error), 3-5 experiments; for RFC/PCFT Selectivity ratios: ratio of IC50 PC43-10 (RFC) to IC50 R2/PCFT4 (PCFT)
Source text: as §1, §2, §3, §4, §5, §6, §7, §8

[2] = tested on: MTXRIIOuaR2-4 CHO cells (R2; RFC-, PCFT-, and FR-null); test: Cell proliferation assay, transporter-null R2 CHO cells; conditions: Cricetulus griseus, 96 h, 0-1000 nM, mean (standard error), 3-5 experiments
Source text: as §1, §2, §3, §4, §5, §6, §7, §8

Compound | IC50 (RT16 (FRα) CHO cells) | RFC/FRα Selectivity ratios (RT16 (FRα) CHO cells) | IC50 (PC43-10 (RFC) CHO cells) | IC50 [1] | RFC/PCFT Selectivity ratios [1] | IC50 [2]
Nc1nc2[nH]cc(CCc3ccc(C(=O)N[C@@H](CCC(=O)O)C(=O)O)s3)c2c(=O)[nH]1 [Compound 3] | 550 nM | 0.11 | 59.9 nM | 80.2 nM | 0.75 | > 1000 nM
Nc1nc2[nH]cc(CCc3ccc(C(=O)N[C@@H](CCC(=O)O)C(=O)O)c(F)c3)c2c(=O)[nH]1 [Compound 4] | 6.76 nM | 25 | 169 nM | 25.9 nM | 6.5 | > 1000 nM
Cc1[nH]c2nc(N)[nH]c(=O)c2c1CCCc1ccc(C(=O)N[C@@H](CCC(=O)O)C(=O)O)cc1 [Compound 6] | 63.8 nM | >15.7 | > 1000 nM | 64.7 nM | >15.5 | > 1000 nM
Cc1[nH]c2nc(N)[nH]c(=O)c2c1CCc1ccc(C(=O)N[C@@H](CCC(=O)O)C(=O)O)s1 [Compound 7] | 2.53 nM | >395 | > 1000 nM | 51.5 nM | >19.4 | > 1000 nM
Cc1[nH]c2nc(N)[nH]c(=O)c2c1CCc1ccc(C(=O)N[C@@H](CCC(=O)O)C(=O)O)cc1 [Compound 5] | 94.8 nM | >10.5 | > 1000 nM | 7.66 nM | >130 | > 1000 nM
Nc1nc2[nH]cc(CCc3ccc(C(=O)N[C@@H](CCC(=O)O)C(=O)O)cc3)c2c(=O)[nH]1 [Compound 1, reference compound] | 14 nM |  | 30.6 nM |  |  | > 1000 nM
Cc1[nH]c2nc(N)[nH]c(=O)c2c1CCc1ccc(C(=O)N[C@@H](CCC(=O)O)C(=O)O)c(F)c1 [Compound 8] | 100 nM | >10 | > 1000 nM | > 1000 nM |  | > 1000 nM
Nc1nc2[nH]cc(CCCc3ccc(C(=O)N[C@@H](CCC(=O)O)C(=O)O)cc3)c2c(=O)[nH]1 [Compound 2] | 47.9 nM |  |  |  |  | > 1000 nM
